Results: article PMC10177380 (Cancers, 2023)
Several values for one entry are separate records, joined by “and”; a condition that tells them apart may be missing. Equal entries are not always repeated. Where two headings read alike, the source gives them in different places.

How the values were obtained:
[1] = system: H460 lung; assay: MTT growth inhibition, 72 h, H460; format: cell-based; details: H460, MTT, 72 h
[2] = system: BE2C neuroblastoma; assay: MTT growth inhibition, 72 h, BE2C; format: cell-based; details: BE2C, MTT, 72 h
[3] = system: SJG2 glioblastoma; assay: MTT growth inhibition, 72 h, SJG2; format: cell-based
[4] = system: non-tumour derived MCF10A breast line; assay: MTT growth inhibition, 72 h, MCF10A; format: cell-based
[5] = system: A431 skin; assay: MTT growth inhibition, 72 h, A431; format: cell-based
[6] = system: U87 glioblastoma; assay: MTT growth inhibition, 72 h, U87; format: cell-based
[7] = system: A2780 ovarian; assay: MTT growth inhibition, 72 h, A2780; format: cell-based
[8] = system: ADDP ovarian variant (cisplatin-resistant A2780 clone); assay: MTT growth inhibition, 72 h, ADDP; format: cell-based; details: ADDP, MTT, 72 h
[9] = system: MIA pancreas; assay: MTT growth inhibition, 72 h, MIA; format: cell-based
[10] = system: Du145 prostate; assay: MTT growth inhibition, 72 h, Du145; format: cell-based; details: Du145, MTT, 72 h
[11] = system: HT29 colon; assay: MTT growth inhibition, 72 h, HT29; format: cell-based, human
[12] = system: multiple cell lines; assay: MTT growth inhibition, over all cell lines tested; format: cell-based
[13] = system: HT29 colon cells; assay: ROS production, DCFDA/H2DCFDA cellular ROS assay; format: cell-based, human; details: treatment at GI50 concentration (TBHP positive control 20 μM)
Protocol: To determine the presence of ROS in treated cells, a DCFDA/H2DCFDA-cellular ROS Assay Kit (Abcam, Cambridge, MA, USA) was utilised, as previously reported. The ROS potential of platinum(II) precursors and platinum(IV) scaffolds, which were determined using the same method, were also presented in this study for comparison.
Additionally, the ROS potential of the platinum(II) precursors and platinum(IV) scaffolds was determined previously and was presented here to allow for comparison (Table 10 and Figure 13). […] Treatment with the complexes and ligands was completed at each specific GI50 concentration. […]
dimethylthiazol-2-yl]-2,5-diphenyltetrazolium bromide) assay and absorbance was read at 540 nm. An eight-point dose response curve was produced from which the GI50 value was calculated, representing the drug concentration at which cell growth was inhibited by 50% based on the difference between the optical density values on day 0 and those at the end of drug exposure.
4. Reactive Oxygen Species (ROS) Potential
A total of 25,000 cells/mL of HT29 cells in DMEM were seeded in 96-well plates. Cells were washed with 1X kit buffer, and then stained with 25 μM 2’,7’-dichlorofluorescein diacetate (DCFH-DA) and incubated for 45 min. DCFH-DA was then removed, and cells were then re-washed with 1X kit buffer, after which phenol red free media was added.
Cells were then treated with a GI50 drug concentration for each complex. The plates were directly scanned to measure fluorescence (relative fluorescence units (RFU)) at different time points using the Glo-Max®-Multimode microplate reader (Promega Corporation, Alexandra, VIC, Australia) at an excitation/emission of 485/535 nm. […]

[14] = system: HT29 colon; parameters: method as in PMID 36296713, PMID 36142383; details: cited from earlier work
[15] = Reduction with ascorbic acid (AsA) in PBS followed by 1H-NMR and 1D-195Pt-NMR; format: physicochemical; details: 37 °C; for Reduction Times T50%: estimated 50% reduction; for Reduction Times T50% / Reduction Times T100%: PBS in D2O; for Reduction Times T100%: estimated 100% reduction; for time of complete reduction to platinum(II) precursor: final 1D-195Pt-NMR at 400 ppm
Protocol: The reduction behaviour of 1–6 was probed via ^1H-NMR and 1D-^195Pt-NMR spectroscopy, as previously described (see Supplementary Materials).
The reduction behaviour of 1–6 was monitored by ^1H-NMR and 1D-^195Pt-NMR spectroscopy using previously established methods. Prior to the reduction measurements, each metal complex was dissolved with PBS in D2O only.
Based on the initial 1D-^195Pt-NMR spectra acquired (Figures S62 and S63), the structural integrity of the complexes was retained, and no signs of reduction were observed, thus also confirming that the PBS had no effect on the complexes. Subsequently, AsA was added in each solution containing the metal complex, PBS and D2O. Then, sequential ^1H-NMR experiments were undertaken for 1 h, followed by final 1D-^195Pt-NMR experiments measured within the regions of 400 and −2800 ppm (Figures S64–S75). The approximate time points for 1–6 at which an estimated 50 and 100% reduction had occurred, in the presence of AsA, as represented by T50% and T100%, are summarised in Table 8.
A sequence of 1H-NMR experiments was carried out for 1 h at 37 °C, followed by 1D-195Pt-NMR within the regions of –2800 and 400 ppm. An amount of 10 mM PBS (~7.4 pH) was transferred to a vial and reduced to dryness through rotary evaporation. AsA (~1 mg) was combined with the metal complex (~5 mg) and transferred to the vial containing the dried PBS. 600 μL of D2O was then added to the vial to dissolve the complex, AsA and the PBS together. Each reaction was followed at 37 °C until the complete reduction […]
The cell lines tested were: HT29 colon, U87 glioblastoma, MCF-7 breast, A2780 ovarian, H460 lung, A431 skin, Du145 prostate, BE2-C neuroblastoma, SJ-G2 glioblastoma, MIA pancreas, ADDP ovarian variant, and the non-tumour derived MCF10A breast line. In […]
agents were prepared in DMSO (30 mM stock solutions) and stored at −20 °C until use.
All cell lines were cultured in a humidified atmosphere 5% carbon dioxide at 37 °C. The cancer cell lines were maintained in Dulbecco’s modified Eagle’s medium (DMEM) (Trace Biosciences, Sydney, NSW, Australia) supplemented with 10% foetal bovine serum, 10 mM sodium bicarbonate penicillin (100 IU mL−1), streptomycin (100 μg mL−1) and glutamine (4 mM). The non-cancer MCF10A cell line was cultured in DMEM:F12 (1:1) cell culture media, 5% heat inactivated horse serum, supplemented with penicillin (50 IU mL−1), streptomycin (50 μg mL−1), 20 mM 4-(2-hydroxyethyl)-1-piperazineethanesulfonic acid (HEPES), L-glutamine (2 mM), epidermal growth factor (20 ng mL−1), hydrocortisone (500 ng mL−1), cholera toxin (100 ng mL−1) and insulin (10 μg mL−1). Cytotoxicity was determined by plating cells in duplicate in […] medium at a density of 2500 – 4000 cells per well in 96 well plates. On day 0 (24 h after plating) when the cells were in logarithmic growth, 100 μL of medium with or without the test agent

[16] = system: MCF10A / Du145; parameters: method as in PMID 36296713, PMID 36142383; details: GI50 in MCF10A/GI50 in Du145, from data of previous studies; cited from earlier work
[17] = all cell lines, MTT, 72 h, read-out: GI50 values over the cell lines tested
[18] = mean over all cell lines tested, read-out: Mean GI50 Values

Structure (SMILES) | GI50 [6] [nM] | GI50 [9] [nM] | GI50 [12, 18] [nM] | ROS Production ([13]; HT29, 24 h) [RFU] | ROS Production ([13]; HT29, 48 h) [RFU] | ROS Production ([13]; HT29, 72 h) | GI50 [14] [nM] | GI50 [1] [nM] | GI50 [2] [nM] | GI50 [3] [nM] | GI50 [4] [nM] | GI50 [5] [nM] | GI50 [7] [nM] | GI50 [8] [nM] | GI50 [10] [nM] | GI50 [11] [nM] | Reduction Times T50% [15] [min] | Reduction Times T100% [15] | Selectivity Cytotoxicity Index (SCI) [16] | other results
COc1ccc2c(c1)c(CC(=O)OCC(=O)O)c(C)n2C(=O)c1ccc(Cl)cc1 [ACE, acemetacin] | > 50000 | > 50000 | > 50000 | 279 ± 7 | 260 ± 9 | 132 ± 13 RFU | – | – | – | – | – | – | – | – | – | – | – | – | – | GI50 ([1]; Homo sapiens, NCI-H460): > 50000 nM; GI50 ([2]; Homo sapiens, BE(2)-C): > 50000 nM; GI50 ([3]; SJ-G2): > 50000 nM; GI50 ([4]; Homo sapiens, MCF-10A): > 50000 nM; GI50 ([5]; Homo sapiens, A-431): > 50000 nM; GI50 ([7]; Homo sapiens): > 50000 nM; GI50 ([8]; Cisplatin-resistant A2780): > 50000 nM; GI50 ([10]; Homo sapiens, DU-145): > 50000 nM; GI50 ([11]; Homo sapiens, HT-29): > 50000 nM; GI50 [12, 17]: > 50000 nM
N.N.[Cl][Pt][Cl] [Cisplatin, cis-diamminedichloroplatinum(II)] | – | – | – | 299 ± 25 | 370 ± 22 | 392 ± 21 RFU | 11300 | – | – | – | – | – | – | – | – | – | – | – | – | –
COc1ccc2cc([C@H](C)C(=O)[O][Pt+2]3([OH])[N]4C=CC=c5ccc6c(c54)[N]3C=CC=6)ccc2c1.N[C@H]1CCCC[C@@H]1N [Complex 1, [Pt^IV(phen)(SS-DACH)(NPX)(OH)]^2+] | 2570 ± 440 | 660 ± 100 | 931 ± 139 | 235 ± 23 | 215 ± 19 | 63 RFU and 63 ± 7 RFU | – | 860 ± 124 | 1470 ± 67 | 1570 ± 67 | 450 ± 24 | 1020 ± 390 | 420 ± 50 | 400 ± 19 | 230 ± 17 | 400 ± 23 | 20 to 25 | post 60 min | – | –
COc1ccc2cc([C@H](C)C(=O)[O][Pt+2]3([OH])[N]4C=CC=c5cc(C)c6c(c54)[N]3C=CC=6)ccc2c1.N[C@H]1CCCC[C@@H]1N (stereo partly drawn) [Complex 2, [Pt^IV(5-Mephen)(SS-DACH)(NPX)(OH)]^2+] | 1330 ± 190 | 370 ± 54 | 490 ± 75 | 290 ± 17 | 261 ± 15 | 84 RFU and 84 ± 9 RFU | – | 410 ± 37 | 680 ± 17 | 620 ± 43 | 310 ± 12 | 530 ± 180 | 290 ± 56 | 280 ± 27 | 130 ± 27 | 210 ± 19 | 10 to 15 | post 60 min | – | time of complete reduction to platinum(II) precursor [15]: ~ 1.5 h
COc1ccc2cc([C@H](C)C(=O)[O][Pt+2]3([OH])[N]4C=CC=c5c(C)c(C)c6c(c54)[N]3C=CC=6)ccc2c1.N[C@H]1CCCC[C@@H]1N [Complex 3, [Pt^IV(5,6-Me2phen)(SS-DACH)(NPX)(OH)]^2+] | 180 ± 23 | 47 ± 7 | 84 ± 12 | 297 ± 21 | 287 ± 11 | 104 RFU and 104 ± 15 RFU | – | 56 ± 5 | 220 ± 12 | 230 ± 18 | 36 ± 4 | 75 ± 33 | 39 ± 9 | 25 ± 2 | 10 ± 2 | 28 ± 6 | 10 to 15 | post 60 min | – | time of complete reduction to platinum(II) precursor [15]: ~ 1.5 h
COc1ccc2c(c1)c(CC(=O)OCC(=O)[O][Pt-2]13([OH])([NH2+][C@H]4CCCC[C@@H]4[NH2+]1)[n+]1cccc4ccc5ccc[n+]3c5c41)c(C)n2C(=O)c1ccc(Cl)cc1 [Complex 4, [Pt^IV(phen)(SS-DACH)(ACE)(OH)]^2+] | 1720 ± 140 | 490 ± 36 | 735 ± 58 | 303 ± 8 | 298 ± 17 | 168 RFU and 168 ± 15 RFU | – | 610 ± 80 | 1300 ± 150 | 1450 ± 104 | 360 ± 29 | 930 ± 490 | 350 ± 47 | 330 ± 27 | 150 ± 40 | 290 ± 30 | – | 10 to 15 min | – | fold difference of mean GI50 compared to platinum(II) precursor [12]: 1- to 2 fold
Cc1cc2c3c4c1=CC=C[N]4[Pt+2][N]3C=CC=2.N[C@H]1CCCC[C@@H]1N [Complex 5MESS] | – | – | – | – | – | – | 33 ± 4 | – | – | – | – | – | – | – | – | – | – | – | 1.36 | –
Cc1c(C)c2cccnc2c2ncccc12.N[C@H]1CCCC[C@@H]1N.[Pt] [Complex 56MESS, [Pt^II(5,6-Me2phen)(SS-DACH)]^2+] | – | – | – | – | – | – | 10 ± 1.6 | – | – | – | – | – | – | – | – | – | – | – | 3.48 | –
COc1ccc2cc([C@H](C)C(=O)O)ccc2c1 [NPX, naproxen] | > 50000 | > 50000 | > 50000 | 187 ± 12 | 178 ± 13 | 15 ± 5 RFU | – | – | – | – | – | – | – | – | – | – | – | – | – | GI50 ([1]; Homo sapiens, NCI-H460): > 50000 nM; GI50 ([2]; Homo sapiens, BE(2)-C): > 50000 nM; GI50 ([3]; SJ-G2): > 50000 nM; GI50 ([4]; Homo sapiens, MCF-10A): > 50000 nM; GI50 ([7]; Homo sapiens): > 50000 nM; GI50 ([8]; Cisplatin-resistant A2780): > 50000 nM; GI50 ([10]; Homo sapiens, DU-145): > 50000 nM; GI50 ([11]; Homo sapiens, HT-29): > 50000 nM; GI50 [12, 17]: > 50000 nM
C1=C[N]2[Pt+2][N]3C=CC=c4ccc(c2c43)=C1.N[C@H]1CCCC[C@@H]1N [PHENSS] | – | – | – | – | – | – | 160 ± 45 | – | – | – | – | – | – | – | – | – | – | – | 3.00 | –
